Laboratory results taken from patent US7820703B2, “Lysophosphatidic acid receptor selective antagonists” (University of Virginia Patent Foundation, priority 2004, dated 2010).
Entries after “also recorded” stand apart in the source; their conditions may differ.

Columns and labels:
[1] = molecular target: T1, human LPA3 (Homo sapiens, UniProt Q9UBY5); assay: GTP[γ35S] binding assay, agonist activity at LPA3; type: biochemical; parameters: expressed in transfected cells; host or cells: HEK293T cells (membranes)
T1 sequence (Q9UBY5 1-353): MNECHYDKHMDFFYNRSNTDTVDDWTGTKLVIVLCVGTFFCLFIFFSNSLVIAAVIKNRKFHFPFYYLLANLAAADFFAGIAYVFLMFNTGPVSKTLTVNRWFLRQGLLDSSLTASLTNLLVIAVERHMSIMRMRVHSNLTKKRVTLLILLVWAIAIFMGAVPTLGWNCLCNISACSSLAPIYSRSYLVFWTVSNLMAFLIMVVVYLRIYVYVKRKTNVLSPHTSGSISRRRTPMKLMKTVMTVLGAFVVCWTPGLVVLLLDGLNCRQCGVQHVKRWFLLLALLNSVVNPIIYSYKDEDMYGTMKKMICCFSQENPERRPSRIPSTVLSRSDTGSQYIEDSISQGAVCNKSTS
Method: (§1) The appropriate receptor plasmid DNA (encoding mouse LPA1, human LPA2 or human LPA3) was mixed with equal amounts of expression plasmids (pcDNA3) encoding a mutated (C351F) rat Gi2a, cow β1, and γ2 proteins and these DNAs were used to transfect monolayers of HEK293T cells (where ‘T’ indicates expression of the SV-40 virus large T antigen) using the calcium phosphate precipitate method. After about 60 hours, cells were harvested, membranes were prepared, aliquoted and stored at −70° C. until use.
(§2) The GTP[35 γS] assay was performed as described by us previously. Membranes containing 5 ug of protein were incubated in 0.1 ml GTP-binding buffer (in mM: HEPES 50, NaCl 100, MgCl2 10, pH7.5) containing […], […], 0.1 nM GTP[35 γS] (1200 Ci/mmol), and indicated lipid(s) for 30 minutes at 30° C. Samples were analyzed for membrane-bound radionuclide using a Brandel Cell Harvester (Gaithersburg, Md.). The C351F mutation renders the Gi2α protein resistant to inactivation by pertussis toxin or the alkylating agent N-ethylmaleimide; however in practice background binding was sufficiently low to obviate these maneuvers.
(§3) This assay isolates each recombinant LPA receptor and allows analysis of all three receptors using the same system.
(§4) Membranes prepared from these cells are used to measure GTPγ[^35S] binding as a function of test compound concentration. The resulting dose-response curves provide relative potency (EC50) and efficacy (Emax) for the test compounds.

[2] = molecular target: T2, LPP1 (PAP2a) (Homo sapiens, UniProt O14494); assay: LPP inhibition, competition with [32P]LPA, LPP1; type: biochemical; conditions: competition with 50 nM [32P]LPA
T2 sequence (O14494 1-284): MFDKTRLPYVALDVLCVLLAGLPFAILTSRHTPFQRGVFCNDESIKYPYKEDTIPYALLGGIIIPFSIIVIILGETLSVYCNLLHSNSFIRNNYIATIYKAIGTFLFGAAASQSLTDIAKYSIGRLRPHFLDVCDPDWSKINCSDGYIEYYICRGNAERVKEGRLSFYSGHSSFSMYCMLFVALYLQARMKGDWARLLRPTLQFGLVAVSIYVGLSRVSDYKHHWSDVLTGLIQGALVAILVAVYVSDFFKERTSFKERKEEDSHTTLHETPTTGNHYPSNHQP
Method: (§5) NOHPP was also tested for activity at the three cloned LPPs. Although the phosphonate head group eliminates the possibility of NOHPP acting as a substrate, it is possible that the compound could be a competitive inhibitor.

[3] = molecular target: T3, human LPA2 (Homo sapiens, UniProt Q9HBW0); assay: GTP[γ35S] binding assay, agonist activity at LPA2; type: biochemical; parameters: expressed in transfected cells; host or cells: HEK293T cells (membranes)
Method: as §1
(§6) The GTP[35 γS] assay was performed as described by us previously. Membranes containing 5 ug of protein were incubated in 0.1 ml GTP-binding buffer (in mM: HEPES 50, NaCl 100, MgCl2 10, pH7.5) containing […], […], 0.1 nM GTP[35 γS] (1200 Ci/mmol), and indicated lipid(s) for 30 minutes at 30° C. Samples were analyzed for membrane-bound radionuclide using a Brandel Cell Harvester (Gaithersburg, Md.).
as §4

[4] = molecular target: T4, LPP3 (PAP2b) (Homo sapiens, UniProt O14495); assay: LPP inhibition, competition with [32P]LPA, LPP3; type: biochemical; conditions: competition with 50 nM [32P]LPA
T4 sequence (O14495 1-311): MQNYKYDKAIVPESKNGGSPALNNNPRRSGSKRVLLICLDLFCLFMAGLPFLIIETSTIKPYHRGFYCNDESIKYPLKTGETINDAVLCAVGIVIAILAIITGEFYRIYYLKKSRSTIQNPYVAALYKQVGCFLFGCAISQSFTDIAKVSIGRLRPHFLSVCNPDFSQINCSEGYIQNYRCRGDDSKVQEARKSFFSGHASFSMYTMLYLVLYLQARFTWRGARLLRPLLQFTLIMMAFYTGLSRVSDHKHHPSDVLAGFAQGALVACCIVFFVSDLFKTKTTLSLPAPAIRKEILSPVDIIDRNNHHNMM
Method: as §5

[5] = molecular target: T5, mouse LPA1 (Mus musculus, UniProt P61793); assay: GTP[γ35S] binding assay, agonist activity at LPA1; type: biochemical; parameters: expressed in transfected cells; host or cells: HEK293T cells (membranes)
Method: as §1, §2, §3, §4

[6] = tested on: LPA receptors; assay: whole cell assays of calcium mobilization or inhibition of cAMP accumulation, agonist activity; type: cell-based
Method: (§7) Assays for cAMP accumulation were conducted on populations of 5×10^5 cells stimulated with […] in the presence of the phosphodiesterase inhibitor isomethylbutylxanthine (IBMX) for 15 minutes at 30° C. cAMP was measured by automated radioimmunoassay.
A FLIPR™ (Molecular Devices, Inc.) was used to measure intracellular calcium in A431 and HEK293T cells. A431 cells were seeded (˜50,000 cells/well) in 96-well clear bottom black microplates (Corning Costar Corp., Cambridge, Mass.) and left overnight in CO2 incubator at 37° C. HEK293T cells were treated likewise, but seeded onto poly D-lysine coated microplates (Becton Dickinson, Franklin Lakes, N.J.). A431 cells were dye-loaded with 4 μM Fluo-3 AM ester (Molecular Probes Inc., Eugene, Oreg.) in a loading buffer (1×HBSS buffer, pH 7.4, containing 20 mM HEPES, 0.1% BSA, and 2.5 mM probenecid) for 1 hour at 37° C. Cells were then washed four times with the loading buffer and exposed in the FLIPR™ to sets of compounds. HEK293T cells were loaded with 2 μM Fluo-4 AM ester (Molecular Probes Inc., Eugene, Oreg.) in the same loading buffer without probenecid for 30 minutes and washed four times before being exposed to compounds in the FLIPR™. […]
The same activity was determined with human LPA1 using a recombinant baculovirus-infected insect Sf9 cell membrane preparation.

[7] = molecular target: T6, LPA1 receptor (Mus musculus, UniProt P61793); assay: antagonism of LPA-evoked GTP[γ35S] binding at LPA1; type: biochemical; conditions: GTP[γ35S] binding
T6 construct: expressed in transfected cells; host or cells: HEK293T cells (membranes)
Method: as §1, §6
The X-intercept of the linear transformation is equal to the inverse log of the KI.
All compounds were characterized by ^1H and ^13C NMR, mass spectroscopy and, in certain cases, elemental analysis. A GTP[γ35S] binding assay was adapted to assess in vitro activity.
All compounds were characterized by ^1H and ^13C NMR, mass spectroscopy and, in most cases, C, H, N analyses. A membrane-based GTP[γ^35S] binding assay was adapted to assess in vitro activity at the LPA1 and LPA3 receptors.

[8] = tested on: human platelets; assay: aggregation of human platelets; type: cell-based; conditions: concentrations up to 10 micromolar
Description: wls-b8L is expected to be resistant to hydrolysis by phosphohydrolases by virtue of its containing a phosphonate, rather than a phosphate, group. Furthermore this chemical entity (wls-b8L) has two additional desirable properties.

[9] = molecular target: T3, human LPA2; assay: chloride conductance in Xenopus oocytes injected with human LPA2 mRNA; type: cell-based; parameters: expressed in transfected cells; host or cells: Xenopus laevis oocytes injected with mRNA; conditions: 10 μM applied to the oocyte surface
Method: (§8) wls-b8L and the other phosphonates were also tested also for activity in three whole cell assays. […] Finally, the activity of wls-b8L in activating a chloride conductance in Xenopus laevis ooctyes was measured.

[10] = molecular target: T1, human LPA3; assay: chloride conductance in Xenopus oocytes injected with human LPA3 mRNA; type: cell-based; parameters: expressed in transfected cells; host or cells: Xenopus laevis oocytes injected with mRNA; conditions: 10 μM applied to the oocyte surface
Method: as §8

[11] = tested on: Xenopus laevis ooctyes; assay: chloride conductance in Xenopus laevis oocytes, endogenous receptor; type: cell-based
Method: as §8

[12] = molecular target: T5, mouse LPA1; assay: cAMP accumulation in RH7777 cells expressing LPA1; type: cell-based; parameters: expressed in transfected cells; conditions: concentration of 1 μM
Method: as §7
Rat hepatoma RH7777 cell monolayers were transfected with the mLPA1 plasmid DNA using the calcium phosphate precipitate method and clonal populations expressing the neomycin phosphotransferase gene were selected by addition of geneticin (G418) to the culture media. The RH7777 cells were grown in monolayers at 37° C. in a 5% CO02/95% air atmosphere in growth media consisting of: 90% MEM, 10% fetal bovine serum, 2 mM glutamine and 1 mM sodium pyruvate.
as §8

T3 sequence (Q9HBW0 whole entry): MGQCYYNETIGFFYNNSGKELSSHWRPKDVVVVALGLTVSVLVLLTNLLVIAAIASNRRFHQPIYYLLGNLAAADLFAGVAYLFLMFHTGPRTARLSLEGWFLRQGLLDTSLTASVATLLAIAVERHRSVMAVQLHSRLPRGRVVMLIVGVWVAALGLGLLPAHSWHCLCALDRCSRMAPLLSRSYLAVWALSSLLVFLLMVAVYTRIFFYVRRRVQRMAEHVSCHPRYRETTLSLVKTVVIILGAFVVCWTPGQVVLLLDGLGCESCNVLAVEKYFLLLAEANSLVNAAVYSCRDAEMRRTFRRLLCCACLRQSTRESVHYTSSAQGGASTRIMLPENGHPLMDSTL
T5 sequence (P61793 whole entry): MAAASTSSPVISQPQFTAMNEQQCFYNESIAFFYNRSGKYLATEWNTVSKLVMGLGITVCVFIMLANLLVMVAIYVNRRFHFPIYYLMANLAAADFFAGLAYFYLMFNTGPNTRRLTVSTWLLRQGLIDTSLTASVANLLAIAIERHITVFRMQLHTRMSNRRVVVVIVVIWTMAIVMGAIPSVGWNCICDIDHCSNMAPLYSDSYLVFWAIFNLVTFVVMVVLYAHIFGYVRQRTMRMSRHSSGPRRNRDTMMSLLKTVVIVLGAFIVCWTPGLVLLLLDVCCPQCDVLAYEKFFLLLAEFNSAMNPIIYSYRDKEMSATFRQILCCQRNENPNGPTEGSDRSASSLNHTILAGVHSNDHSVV
T6 sequence (P61793 whole entry): as above

| inhibition of LPP1 [2] | inhibition of LPP3 [4] | antagonist activity at LPA1, in words [7] | chloride conductance response, oocytes injected with human LPA2 mRNA [9] | chloride conductance response, oocytes injected with human LPA3 mRNA [10] | activating a chloride conductance, endogenous receptor [11] | inhibition of cAMP accumulation, efficacy [12] | SMILES | agonist activity at LPA3, in words [1] | agonist activity at LPA2, in words [3] | inhibition of LPP3 ([4]; listed as VPC12031) | agonist activity at LPA1, in words [5] | agonist activity in whole cell assays [6] | aggregation of human platelets [8] |
| --- | --- | --- | --- | --- | --- | --- | --- | --- | --- | --- | --- | --- | --- |
| to a lesser extent | inhibited |  |  |  |  |  | CCCCCCCC/C=C\CCCCCCCC(=O)NCCC(O)P(=O)(O)O (racemic) [NOHPP, (9Z)-N-(rac-3-hydroxy-3-phosphonopropyl)octadec-9-enamide] | little activity; also recorded: distinctly less potent and far less efficacious than LPA | fully efficacious; also recorded: as efficacious as, but somewhat less potent than, LPA | markedly better at the PAP2b (LPP3) than PAP2a (LPP1) | fully efficacious; also recorded: as efficacious as, but somewhat less potent than, LPA |  |  |
|  |  | did block LPA activity |  |  |  |  | CCCCCCCC/C=C\CCCCCCCC(=O)N[C@@H](COP(=O)(O)O)Cc1ccccc1 [VPC12084] |  |  |  |  | appreciable agonist activity |  |
|  |  |  | very modest response | very modest response | does not evoke this response | fully efficacious | CCCCCCCC/C=C\CCCCCCCC(=O)NCCCP(=O)(O)O [wls-b8L, (9Z)-N-(3-phosphonopropyl)octadec-9-enamide] |  |  |  | more potent and efficacious at LPA1 than at either LPA2 or LPA3 |  | does not elicit aggregation |
